From US9446119B2 (priority 2011, dated 2016)

These substances were tested on PBMCs.
Type: cell-based, human
With “18 (GVIFLISVIVLVCSCDGVIFLISVIVLVCSCN) [compound 18]” the “S.I. (stimulation index: mean spots per well containing polypeptide/mean spots per background wells)” value was 2.1.
CYIFHSDYQLFSDAKA was tested, and the “S.I. (stimulation index: mean spots per well containing polypeptide/mean spots per background wells)” value was 1.1.
CYILHSDYQLFSDAKA [Polypeptide 6] was tested, and the “S.I. (stimulation index: mean spots per well containing polypeptide/mean spots per background wells)” value was 3.5 and the “number of subjects recognizing the peptide” value was 3 subjects.
In the case of DTFFRTSPMVIATTDI, the “S.I. (stimulation index: mean spots per well containing polypeptide/mean spots per background wells)” value is reported as 1.1.
In the case of DVLFRLENHAETLRAA, the “S.I. (stimulation index: mean spots per well containing polypeptide/mean spots per background wells)” value is reported as 0.7.
With EVLFRLENHAETLRAA [Polypeptide 21] the “S.I. (stimulation index: mean spots per well containing polypeptide/mean spots per background wells)” value was 2.5.
With GVIFLISVIVLVCSCN the “IFNγ response to the VARV version of the polypeptide” value was “detected” and the “S.I. (stimulation index: mean spots per well containing polypeptide/mean spots per background wells)” value was 2.3.
With KADGDDNEETLKQRLT the “S.I. (stimulation index: mean spots per well containing polypeptide/mean spots per background wells)” value was 1.
With LYNKPLYEVNAIITLI the “S.I. (stimulation index: mean spots per well containing polypeptide/mean spots per background wells)” value was 1.
